Each structure is given as a SMILES string. In brackets after ≈: the same amount, converted by molar mass.

What all share (format): cell-based
Experiment [1] deals with Staphylococcus epidermidis, Corynebacterium xerosis, Brevibacterium epidermidis. Nature of the experiment: MIC determination, agar dilution method, summary over the three test organisms. The conditions noted are these: summary of Table 4 over all three test organisms. The method, then:
To prepare various test concentrations 2.6 ml of a 3.3% stock solution (3.3 g 1,2-decanediol or comparison substance in 100 ml ethanol (96% in H2O; Merck, Cat. no. 1.00971)) was used at the starting material in each case. Further test concentrations (diluted sample) in the form of a geometric dilution series were prepared by progressive 2:1 dilution with ethanol (96%; Merck, Cat. no. 1.00971). Determination of the antimicrobial action of 1,2-decanediol (or of a comparison substance) was carried out with the aid of the agar dilution method based on DIN 58 940/ICS and DIN 58 944/ICS. […] The inoculated plates were incubated under the conditions given in Table 3 and were then assessed. […] Minimum, barely visible growth or a few small individual colonies were assessed as inhibition. Suspensions of the microorganisms described above were incubated in accordance with the general test conditions described under 1. and the MIC values of 1,2-decanediol were determined (see Table 4). For reference purposes the MIC values for 1,2-octanediol were also determined.

Experiment [2] has as its system Corynebacterium xerosis ATCC 7711. The experiment in a line: MIC determination, agar dilution method (DIN 58 940/58 944). The conditions noted are these: ATCC7711, Mueller-Hinton agar, aerobic, 18 h at 36° C., pure substance. Here is the method: (§1) To prepare various test concentrations 2.6 ml of a 3.3% stock solution (3.3 g 1,2-decanediol or comparison substance in 100 ml ethanol (96% in H2O; Merck, Cat. no. 1.00971)) was used at the starting material in each case. Further test concentrations (diluted sample) in the form of a geometric dilution series were prepared by progressive 2:1 dilution with ethanol (96%; Merck, Cat. no. 1.00971). Determination of the antimicrobial action of 1,2-decanediol (or of a comparison substance) was carried out with the aid of the agar dilution method based on DIN 58 940/ICS and DIN 58 944/ICS. Petri dishes 5.5 cm in diameter were filled with 8.7 ml freshly prepared Mueller-Hinton agar (Merck, Cat. no. 1.05437 or Wilkins-Chalgren agar boillon (sic), Oxoid, Cat. no. CM 643, supplemented with 10 g agar-agar/litre) kept liquid at 50° C., to which in each case 0.3 ml of the particular sample, that is to say 3.3% (V/V) based on the total volume of agar and sample, was added. By means of this further dilution of the undiluted stock solution and of the already diluted samples with the test agar (0.3 ml of the stock solution or of the corresponding diluted sample+8.7 ml agar) 30-fold lower end concentrations were prepared in each case (when using the stock solution an initial concentration of 1,100 ppm results). The concentrations given below are based on the pure substance and have been converted to ppm. 2 agar plates were cast per test concentration and nutrient medium. After solidification and drying (about 1 h at 37° C.), the test plates were inoculated in point form with, in each case, 1 μl of the test organism suspensions listed below. To check purity and identity, the aerobically growing bacteria Brevibacterium epidermidis, Corynebacterium xerosis; and Staphylococcus epidermidis were cultured on Columbia blood agar (BioMérieux, Cat. no. 43049). Further details on the test organisms can be taken from Table 2. [table] The preparation of the test organism suspensions of the test organisms for Brevibacterium epidermidis, Corynebacterium xerosis, and Staphylococcus epidermidis was carried out by incubation of Mueller-Hinton bouillon (Merck, Cat. no. 1.10293), which had been inoculated with a few individual colonies of the particular test organisms, at 36° C. After a distinct turbidity had been achieved, sterile nutrient bouillon was added to the suspensions in such an amount that the turbidity thereof corresponded to McFarland Standard 0.5 (approx. 10^8 CFU/ml). The inoculated plates were incubated under the conditions given in Table 3 and were then assessed. The MIC (minimum inhibitory concentration) was considered to be the lowest active compound concentration with which there is macroscopically no growth. Minimum, barely visible growth or a few small individual colonies were assessed as inhibition. [table] Suspensions of the microorganisms described above were incubated in accordance with the general test conditions described under 1. and the MIC values of 1,2-decanediol were determined (see Table 4). For reference purposes the MIC values for 1,2-octanediol were also determined.

The subject of experiment [3] is Brevibacterium epidermidis ATCC 35514. The experiment is described as above. The note with it: ATCC35514, Mueller-Hinton agar, aerobic, 18 h at 36° C., pure substance. Here is the method:
as §1

Experiment [4] concerns Staphylococcus epidermidis ATCC 12228. The description is as above. The note with it: ATCC12228, Mueller-Hinton agar, aerobic, 18 h at 36° C., pure substance. Here is the method:
as §1

The test system of experiment [5] is Corynebacterium xerosis (C. xerosis 7711). The experiment in a line: Growth curve, suspension test. The note with it: concentration 0.3% in AC medium; incubated 20, 60 and 180 min; compared with 1,2-octanediol and farnesol. Here is the method: • AC medium: 37 g brain heart infusion, 5 g glucose, 1 ml Tween 80, made up to 1 l with H2O. Test Substances: • 1,2-Octanediol (0.3%) • 1,2-Decanediol (0.3%) • Farnesol (0.3%) Control: • AC medium without active compound Test Solutions: • Relevant test substance in AC medium Suspension Test (see FIG. 1) 60 ml AC medium were inoculated with 0.4 ml of a fresh overnight culture of the test organism Corynebacterium xerosis (C. xerosis 7711). The culture vessel was shaken at 30° C. and 250 rpm until a cell density of 10^5 to 10^6 cells/ml had been reached. The test substances were weighed out and in each case dissolved in 2.5 ml AC medium with brief heating to 60° C. The test solutions obtained in this way were then added to 2.5 ml bacterial suspension in each case and the mixtures were incubated for 20, 60 and 180 min maintaining the growth conditions. 100 μl of the incubated test solutions were then taken and the bacterial titre determined by plating-out on nutrient medium.

With `CCCCCCCCC(O)CO` (stereo not drawn) [1,2-Decanediol, 1,2-decanediol], the “MIC values (over the three test organisms)” value in experiment [1] is on record as “distinctly lower”. For the same compound, the MIC turned out to be 225 µg/mL (≈ 1.29 mM) in experiment [2], 450 µg/mL (≈ 2.58 mM) in experiment [3] and 225 µg/mL (≈ 1.29 mM) in experiment [4]. Also, in experiment [5], the “effectiveness in growth curve (bacterial titre)” value was “by far the greatest effectiveness of the substances tested”.
For `CCCCCCC(O)CO` (stereo not drawn) [1,2-Octanediol, 1,2-octanediol, reference compound], the MIC is 1800 to 3600 µg/mL (≈ 12.3 to 24.6 mM) in experiment [1], 3600 µg/mL (≈ 24.6 mM) in experiment [2], 3600 µg/mL (≈ 24.6 mM) in experiment [3] and 1800 µg/mL (≈ 12.3 mM) in experiment [4].

Values taken from patent publication US7247295B2, “Use of 1,2-decandiol for combating germs causing body odor” (DRAGOCO Gerberding & Co. AG, priority 2001, dated 2007).
